From patent US20130150340A1, “6-(4-Hydroxy-phenyl)-1H-pyrazolo[3,4-b]pyridine-4-carboxylic acid amide derivatives as kinase inhibitors” (SANOFI, priority 2011, published 2013)

These compounds were tested against T1, human full-length recombinant PKC βII (Homo sapiens, UniProt P05771) (assay: Determination of PKC βII inhibition (Caliper mobility-shift kinase assay)). Conditions: example compounds at a final concentration of 1.14 μM (±0.15 μM); 60 min incubation at 32° C.
T1 construct: Active human full-length recombinant PKC βII; purchased Invitrogen GmbH, Darmstadt, Germany
T1 sequence (P05771 1-673 isoform P05771-2): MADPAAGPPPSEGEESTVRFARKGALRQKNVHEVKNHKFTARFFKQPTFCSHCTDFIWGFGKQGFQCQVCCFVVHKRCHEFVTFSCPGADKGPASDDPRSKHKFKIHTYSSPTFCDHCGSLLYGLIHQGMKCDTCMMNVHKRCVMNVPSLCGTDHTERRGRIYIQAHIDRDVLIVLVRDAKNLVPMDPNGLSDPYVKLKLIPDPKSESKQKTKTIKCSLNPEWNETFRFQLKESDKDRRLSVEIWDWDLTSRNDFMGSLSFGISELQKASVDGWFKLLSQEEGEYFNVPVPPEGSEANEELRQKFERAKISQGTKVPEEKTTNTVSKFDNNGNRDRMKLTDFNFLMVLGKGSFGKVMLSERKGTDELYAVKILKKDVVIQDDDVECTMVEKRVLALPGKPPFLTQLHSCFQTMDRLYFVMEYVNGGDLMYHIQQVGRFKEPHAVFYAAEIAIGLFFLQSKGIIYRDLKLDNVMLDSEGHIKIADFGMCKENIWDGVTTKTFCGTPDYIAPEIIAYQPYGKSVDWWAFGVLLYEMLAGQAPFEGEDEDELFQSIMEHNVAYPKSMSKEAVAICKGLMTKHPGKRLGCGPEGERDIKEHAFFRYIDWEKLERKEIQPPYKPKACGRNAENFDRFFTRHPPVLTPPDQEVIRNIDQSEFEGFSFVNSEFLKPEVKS
Assay type: biochemical
Experimental: Determination of PKC 3H Inhibition
PKC βII inhibition was determined according to the following protocol:
Active human full-length recombinant PKC βII and the peptide substrate, Fluorescein-RFARKGSLRQKNV, were purchased from Invitrogen GmbH, Darmstadt, Germany. Adenosine-5′-triphosphate (ATP), bovine serum albumine (BSA), dimethylsulphoxide (DMSO), 4-(2-hydroxyethyl)piperazine-1-ethanesulfonic acid (Hepes), Triton X-100, 1,2-Dioleoyl-sn-glycerol (DAG), L-α-Phosphatidyl-L-serine (PS), calcium chloride (CaCl2), and Pluronic F-68 were purchased from Sigma-Aldrich, Munich, Germany. Magnesium chloride, 1 M sodium hydroxide solution, 1M hydrochloric acid solution and EDTA were obtained from Merck Biosciences, Darmstadt, Germany.
Test compounds were diluted to three times the test concentration in buffer 1 (30 mM Hepes-NaOH, pH 7.4, 0.01% Pluronic F-68 and 3% (v/v) DMSO). The PKC βII enzyme was diluted to a concentration of 30 ng/ml in buffer 2 (30 mM Hepes-NaOH, pH 7.4, 15 mM MgCl2, 150 μM CaCl2, 150 μg/ml PS, 60 μg/ml DAG, and 0.045% (w/v) Triton X-100). The peptide substrate and ATP were diluted to concentrations of 3 μM and 120 μM, respectively, in buffer 2. Two μl of the compound solution were mixed with 2 μl of the diluted enzyme in a 384-well small volume microtiter plate (Greiner, Bio-One, Frickenhausen, Germany), and the kinase reaction was initiated by addition of 2 μl of the solution containing peptide substrate and ATP. After 60 min incubation at 32° C., the reaction was stopped by addition of 20 μl of a solution containing 130 mM Hepes-NaOH, pH 7.4, 0.0195% (v/v) Brij-35, 6.5 mM EDTA, 0.13% chip coating reagent 3 (Caliper Lifescience Inc, Hopkinton, Mass.) and 6.5% (v/v) DMSO. Phosphorylation of the substrate peptide was then detected on a Caliper 3000 instrument essentially as described by Pommereau et al (J. Biomol. Screening 2004, 9(5), […]), Separation conditions were as follows: Pressure −0.8 psi, upstream voltage −3000 V, downstream voltage −800 V. Positive controls (buffer 1 instead of compound) and negative controls (buffer 1 instead of compound and buffer 2 instead of kinase solution) were run in parallel on each plate. Fractional turnover (R) was determined as the height of the peak of the phosphorylated peptide product divided by the sum of the unphosphorylated substrate and phosphorylated product peak heights. Percent-inhibition values for the test compounds were determined using the formula
% Inhibition=100*(1−(Rcompound−Rnegative control)/(Rpositive control−Rnegative control).
In the case of `CO[C@H]1CNC[C@@H]1NC(=O)c1cc(-c2ccc(O)cc2)nc2[nH]ncc12` (racemic) [Example 29, 6-(4-Hydroxy-phenyl)-1H-pyrazolo[3,4-b]pyridine-4-carboxylic acid (trans-4-methoxy-pyrrolidin-3-yl)-amide], the inhibition at 1.14 µM is reported as 87%.
`N[C@H]1C[C@@H]1NC(=O)c1cc(-c2ccc(O)cc2)nc2[nH]ncc12` (racemic) [Example 51, 6-(4-Hydroxy-phenyl)-1H-pyrazolo[3,4-b]pyridine-4-carboxylic acid (trans-2-amino-cyclopropyl)-amide] showed an inhibition at 1.14 µM of 55%.
Work on `CC1(C)CC(NC(=O)c2cc(-c3ccc(O)cc3)nc3[nH]ncc23)CC(C)(C)N1` [Example 1, 6-(4-Hydroxy-phenyl)-1H-pyrazolo[3,4-b]pyridine-4-carboxylic acid (2,2,6,6-tetramethyl-piperidin-4-yl)-amide] yielded an inhibition at 1.14 µM of 18%.
`O=C(NC1CCNCC1)c1cc(-c2ccc(O)cc2)nc2[nH]ncc12` [Example 2, 6-(4-Hydroxy-phenyl)-1H-pyrazolo[3,4-b]pyridine-4-carboxylic acid piperidin-4-ylamide] was tested, and the inhibition at 1.14 µM was 27%.
`NC1CCCN(C(=O)c2cc(-c3ccc(O)cc3)nc3[nH]ncc23)C1` (stereo not drawn) [Example 3, (3-Amino-piperidin-1-yl)-[6-(4-hydroxy-phenyl)-1H-pyrazolo[3,4-b]pyridin-4-yl]-methanone] was tested, and the inhibition at 1.14 µM was 95%.
For `O=C(c1cc(-c2ccc(O)cc2)nc2[nH]ncc12)N1CCNCC1` [Example 4, [6-(4-Hydroxy-phenyl)-1H-pyrazolo[3,4-b]pyridin-4-yl]-piperazin-1-yl-methanone], the inhibition at 1.14 µM was 88%.
`O=C(NC1CCNC1)c1cc(-c2ccc(O)cc2)nc2[nH]ncc12` (stereo not drawn) [Example 5, 6-(4-Hydroxy-phenyl)-1H-pyrazolo[3,4-b]pyridine-4-carboxylic acid pyrrolidin-3-ylamide] showed an inhibition at 1.14 µM of 85%.
For `CO[C@H]1CNC[C@@H]1NC(=O)c1cc(-c2ccc(O)cc2)nc2[nH]ncc12` [Example 6, 6-(4-Hydroxy-phenyl)-1H-pyrazolo[3,4-b]pyridine-4-carboxylic acid ((3S,4S)-4-methoxy-pyrrolidin-3-yl)-amide], the inhibition at 1.14 µM was 87%.
With `O=C(c1cc(-c2ccc(O)cc2)nc2[nH]ncc12)N1CCCNCC1` [Example 7, [1,4]Diazepan-1-yl-[6-(4-hydroxy-phenyl)-1H-pyrazolo[3,4-b]pyridin-4-yl]-methanone] the inhibition at 1.14 µM was 84%.
Work on `N[C@H]1CC[C@@H](NC(=O)c2cc(-c3ccc(O)cc3)nc3[nH]ncc23)CC1` [Example 8, 6-(4-Hydroxy-phenyl)-1H-pyrazolo[3,4-b]pyridine-4-carboxylic acid (cis-4-amino-cyclohexyl)-amide] yielded an inhibition at 1.14 µM of 46%.
`N[C@H]1CC[C@H](NC(=O)c2cc(-c3ccc(O)cc3)nc3[nH]ncc23)CC1` [Example 9, 6-(4-Hydroxy-phenyl)-1H-pyrazolo[3,4-b]pyridine-4-carboxylic acid (trans-4-amino-cyclohexyl)-amide] gave an inhibition at 1.14 µM of 82%.
Compound `CC1(C)CNCCN1C(=O)c1cc(-c2ccc(O)cc2)nc2[nH]ncc12` [Example 10, (2,2-Dimethyl-piperazin-1-yl)-[6-(4-hydroxy-phenyl)-1H-pyrazolo[3,4-b]pyridin-4-yl]-methanone] has an inhibition at 1.14 µM of 96%.
With `N[C@H]1CC[C@H](CNC(=O)c2cc(-c3ccc(O)cc3)nc3[nH]ncc23)CC1` [Example 11, 6-(4-Hydroxy-phenyl)-1H-pyrazolo[3,4-b]pyridine-4-carboxylic acid (trans-4-amino-cyclohexylmethyl)-amide] the inhibition at 1.14 µM was 87%.
Compound `N[C@H]1CC[C@@H](CNC(=O)c2cc(-c3ccc(O)cc3)nc3[nH]ncc23)CC1` [Example 12, 6-(4-Hydroxy-phenyl)-1H-pyrazolo[3,4-b]pyridine-4-carboxylic acid (cis-4-amino-cyclohexylmethyl)-amide] has an inhibition at 1.14 µM of 46%.
Compound `O=C(NCC1CNC1)c1cc(-c2ccc(O)cc2)nc2[nH]ncc12` [Example 13, 6-(4-Hydroxy-phenyl)-1H-pyrazolo[3,4-b]pyridine-4-carboxylic acid (azetidin-3-ylmethyl)-amide] has an inhibition at 1.14 µM of 39%.
For `NC1CC(NC(=O)c2cc(-c3ccc(O)cc3)nc3[nH]ncc23)C1` (stereo not drawn) [Example 14, 6-(4-Hydroxy-phenyl)-1H-pyrazolo[3,4-b]pyridine-4-carboxylic acid (3-amino-cyclobutyl)-amide], the inhibition at 1.14 µM was 69%.
`CC(C)C1CN(C(=O)c2cc(-c3ccc(O)cc3F)nc3[nH]ncc23)C(C)(C)CN1` (stereo not drawn) [Example 15, [6-(2-Fluoro-4-hydroxy-phenyl)-1H-pyrazolo[3,4-b]pyridin-4-yl]-(5-isopropyl-2,2-dimethyl-piperazin-1-yl)-methanone] was tested, and the inhibition at 1.14 µM was 94%.
In the case of `N[C@@H]1CCN(C(=O)c2cc(-c3ccc(O)cc3)nc3[nH]ncc23)C1` [Example 16, ((R)-3-Amino-pyrrolidin-1-yl)-[6-(4-hydroxy-phenyl)-1H-pyrazolo[3,4-b]-pyridin-4-yl]-methanone], the inhibition at 1.14 µM is reported as 66%.
Work on `N[C@H]1CCN(C(=O)c2cc(-c3ccc(O)cc3)nc3[nH]ncc23)C1` [Example 17, ((S)-3-Amino-pyrrolidin-1-yl)-[6-(4-hydroxy-phenyl)-1H-pyrazolo[3,4-b]pyridin-4-yl]-methanone] yielded an inhibition at 1.14 µM of 64%.
`O=C(N[C@H]1CN2CCC1CC2)c1cc(-c2ccc(O)cc2)nc2[nH]ncc12` [Example 18, 6-(4-Hydroxy-phenyl)-1H-pyrazolo[3,4-b]pyridine-4-carboxylic acid-(R)-(1-Aza-bicyclo[2.2.2]oct-3-yl)amide] gave an inhibition at 1.14 µM of 72%.
Compound `O=C(N[C@@H]1CCCNC1)c1cc(-c2ccc(O)cc2)nc2[nH]ncc12` [Example 19, 6-(4-Hydroxy-phenyl)-1H-pyrazolo[3,4-b]pyridine-4-carboxylic acid (R)-piperidin-3-ylamide] has an inhibition at 1.14 µM of 83%.
For `O=C(c1cc(-c2ccc(O)cc2)nc2[nH]ncc12)N1CC2(CCNCC2)C1` [Example 20, (2,7-Diaza-spiro[3.5]non-2-yl)-[6-(4-hydroxy-phenyl)-1H-pyrazolo[3,4-b]pyridin-4-yl]-methanone], the inhibition at 1.14 µM was 77%.
Work on `O=C(c1cc(-c2ccc(O)cc2)nc2[nH]ncc12)N1CCC2(CC1)CNC2` [Example 21, (2,7-Diaza-spiro[3.5]non-7-yl)-[6-(4-hydroxy-phenyl)-1H-pyrazolo[3,4-b]pyridin-4-yl]-methanone] yielded an inhibition at 1.14 µM of 59%.
For `O=C(c1cc(-c2ccc(O)cc2)nc2[nH]ncc12)N1CCC2(CCNCC2)C1` [Example 22, (2,8-Diaza-spiro[4.5]dec-2-yl)-[6-(4-hydroxy-phenyl)-1H-pyrazolo[3,4-b]pyridin-4-yl]-methanone], the inhibition at 1.14 µM was 42%.
In the case of `O=C(c1cc(-c2ccc(O)cc2)nc2[nH]ncc12)N1CCC2(CCCNC2)C1` (stereo not drawn) [Example 23, (2,7-Diaza-spiro[4.5]dec-2-yl)-[6-(4-hydroxy-phenyl)-1H-pyrazolo[3,4-b]pyridin-4-yl]-methanone], the inhibition at 1.14 µM is reported as 52%.
`O=C(c1cc(-c2ccc(O)cc2)nc2[nH]ncc12)N1CCCC2(CCNC2)C1` (stereo not drawn) [Example 24, (2,7-Diaza-spiro[4.5]dec-7-yl)-[6-(4-hydroxy-phenyl)-1H-pyrazolo[3,4-b]pyridin-4-yl]-methanone] showed an inhibition at 1.14 µM of 29%.
`O=C(c1cc(-c2ccc(O)cc2)nc2[nH]ncc12)N1CCC2(CCNC2)C1` (stereo not drawn) [Example 25, (2,7-Diaza-spiro[4.4]non-2-yl)-[6-(4-hydroxy-phenyl)-1H-pyrazolo[3,4-b]pyridin-4-yl]-methanone] was tested, and the inhibition at 1.14 µM was 58%.
